Assay results reported in patent US10022366B2, “Extending and maintaining micropore viability of microneedle treated skin with lipid biosynthesis inhibitors for sustained drug delivery” (University of Maryland, Baltimore, priority 2013, dated 2018).

Assay: Reversibility/recovery of pores by transepidermal water loss (TEWL)
Assay type: in vivo, hairless guinea pigs (HGP)
Conditions: following 7-day treatment with FLU in vivo
Source text: The reversibility/recovery of the pores following removal of occlusion was studied using transepidermal water loss (TEWL) in a HGP model. Five different sites were chosen on the dorsal region of an animal. […] All sites were marked and cleaned on the day of the treatment. […] The concentration and amount of NTX gel and FLU were consistent with the PK studies. A placebo gel was used for site 3 and site 4. The placebo gel was similar in composition to the NTX gel with 10% PG, 1% benzyl alcohol and 3% HEC as the gelling agent. […] All sites were occluded using a transdermal patch (148) secured in place with Bioclusive™ tape. […] All experiments were conducted at least in triplicate. Recovery of the skin, (i.e., regeneration of the barrier function of the SC) was studied using TEWL. These studies were carried out to look at the effect of the local concentration of FLU on the recovery/healing of the skin following removal of occlusion.

SMILES: CC(C)n1c(/C=C/C(O)CC(O)CC(=O)O)c(-c2ccc(F)cc2)c2ccccc21 (stereo not shown) [FLU, fluvastatin sodium]
- time of recovery/healing of skin upon removal of occlusion: 45 min
